Description: Referring to FIG. 1, an epidermis 1506 and a dermis 1508 are collectively referred to as a superficial skin layer 1520 herein. An area of a skin 1500 where cold is applied is referred to herein as a cold site. […] Skin blood flow rate in both the cold site and normothermic site was measured using a laser Doppler perfusion imaging system. Studies also compared plasma concentration of drug 1510 in subjects at the cold site and the normothermic site. […] In one exemplary experiment skin blood flow was measured 15 min after application of cold, and every 15 min thereafter for a total of 3 hours.

## O=C(O)c1ccccc1O [salicylic acid]
  concentration of drug in superficial skin layer of cold site, higher compared to normothermic site: about 80%
human, in vivo
  plasma concentration at cold site, lower compared to normothermic site: about 60%
  plasma concentration, cold site: about 45 nmol/ml

Reference: patent US12350458B2, “Apparatus and method for skin treatment” (Brain Tunnelgenix Technologies Corp., priority 2015, dated 2025)
